According to patent US10457710B2, “Antimicrobial peptides, their variants and uses” (priority 2015, dated 2019):
Where a SMILES comes first, the peptide text is derived from it. [ ]: non-standard residue; d: D form.

Legend:
Type in all cases: cell-based
[1] = tested on: clinical strains of E. cloacae; assay: MIC, microdilution, clinical strains; conditions: 0.02% BSA, 0.2% acetic acid
Method in brief: (§1)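 Broth microdilution with inocula adjusted to 5.0×10^5 cfu/ml; peptides tested at 0.125 to 128 μg/ml and incubated at 37° C for 20 to 24 hours. Bacteria were grown in Mueller Hinton broth, yeasts in potato dextrose broth. MIC was the lowest concentration showing no visible growth.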

[2] = tested on: clinical strains of E. coli; assay: MIC, microdilution, clinical strains; conditions: microdilution, Muller Hinton broth-cation adjusted, 0.02% BSA, 0.2% acetic acid
Method in brief: as §1

[3] = tested on: clinical strains of K. pneumoniae; assay: MIC, microdilution, clinical strains; conditions: 0.02% BSA, 0.2% acetic acid
Method in brief: as §1

[4] = tested on: clinical strains of P. aeruginosa; assay: MIC, microdilution, clinical strains; conditions: 0.02% BSA, 0.2% acetic acid
Method in brief: as §1

[5] = tested on: clinical strains of Proteus mirabilis; assay: MIC, microdilution, clinical strains; conditions: 0.02% BSA, 0.2% acetic acid
Method in brief: as §1

[6] = tested on: clinical strains of S. aureus; assay: MIC, microdilution, clinical strains; conditions: 0.02% BSA, 0.2% acetic acid
Method in brief: as §1

[7] = tested on: clinical strains of S. pneumoniae; assay: MIC, microdilution, clinical strains; conditions: 0.02% BSA, 0.2% acetic acid
Method in brief: as §1

[8] = tested on: clinical strains of Serratia marcescens; assay: MIC, microdilution, clinical strains; conditions: 0.02% BSA, 0.2% acetic acid
Method in brief: as §1

C. glabrata = assay: MIC, clinical yeast strains; conditions: D-form peptide, concentrations tested 0.125 to 128 μg/ml
Method in brief: (§2)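 MIC = lowest peptide concentration without visual growth after 20–24 h at 37° C. Range 0.125–128 μg/ml, inoculum 5.0×10^5 cfu/ml, microdilution format. Antifungal tests used potato dextrose broth; bacterial tests used MH broth.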

C. parapsilosis = assay: MIC, clinical yeast strains; conditions: D-form peptide, concentrations tested 0.125 to 128 μg/ml
Method in brief: as §2

Candida albicans = assay: MIC, clinical yeast strains; conditions: D-form peptide, concentrations tested 0.125 to 128 μg/ml
Method in brief: as §2

C. quillermondiae = assay: MIC, clinical yeast strains; conditions: clinical yeast strain 1; D-form peptide; concentrations tested 0.125 to 128 μg/ml
Method in brief: as §2

CC(C)C[C@@H](NC(=O)[C@@H](CCCCN)NC(=O)[C@@H](Cc1c[nH]c2ccccc12)NC(=O)[C@@H](CCCCN)NC(=O)[C@@H](C)NC(=O)[C@@H](Cc1c[nH]cn1)NC(=O)[C@@H](CC(C)C)NC(=O)[C@@H](CCCNC(=N)N)NC(=O)[C@@H](Cc1c[nH]c2ccccc12)NC(=O)[C@H](N)Cc1c[nH]c2ccccc12)C(=O)N[C@H](Cc1c[nH]c2ccccc12)C(=O)O [Chain109D] (H-[dW][dW][dR][dL][dH][dA][dK][dW][dK][dL][dW]-OH)
16: Minimum inhibitory concentration ([2]; Escherichia coli strain 1) | Minimum inhibitory concentration ([3]; Klebsiella pneumoniae strain 1, Muller Hinton broth-cation adjusted) | Minimum inhibitory concentration ([3]; Klebsiella pneumoniae strain 4, Muller Hinton broth-cation adjusted) | Minimum inhibitory concentration ([4]; Pseudomonas aeruginosa strain 1, Muller Hinton broth-cation adjusted) | Minimum inhibitory concentration ([4]; Pseudomonas aeruginosa strain 2, Muller Hinton broth-cation adjusted) | Minimum inhibitory concentration ([4]; Pseudomonas aeruginosa strain 3, Muller Hinton broth-cation adjusted) | Minimum inhibitory concentration ([4]; Pseudomonas aeruginosa strain 4, Muller Hinton broth-cation adjusted) | Minimum inhibitory concentration ([7]; Streptococcus pneumoniae strain 1, Muller Hinton broth-cation adjusted) | Minimum inhibitory concentration, C. glabrata strain 3 (C. glabrata; clinical yeast strain 3)
128: Minimum inhibitory concentration, C. glabrata strain 1 (C. glabrata; clinical yeast strain 1) | Minimum inhibitory concentration, C. glabrata strain 2 (C. glabrata; clinical yeast strain 2) | Minimum inhibitory concentration, C. parapsilosis strain 1 (C. parapsilosis; clinical yeast strain 1) | Minimum inhibitory concentration, C. parapsilosis strain 2 (C. parapsilosis; clinical yeast strain 2) | Minimum inhibitory concentration, C. parapsilosis strain 3 (C. parapsilosis; clinical yeast strain 3) | Minimum inhibitory concentration, Candida albicans strain 1 (Candida albicans; clinical yeast strain 1) | Minimum inhibitory concentration, Candida albicans strain 2 (Candida albicans; clinical yeast strain 2) | Minimum inhibitory concentration, Candida albicans strain 3 (Candida albicans; clinical yeast strain 3) | Minimum inhibitory concentration, Candida albicans strain 4 (Candida albicans; clinical yeast strain 4) | Minimum inhibitory concentration, Candida albicans strain 5 (Candida albicans; clinical yeast strain 5) | Minimum inhibitory concentration, C. quillermondiae strain 1 (C. quillermondiae)
8: Minimum inhibitory concentration ([1]; Enterobacter cloacae strain 2, Muller Hinton broth-cation adjusted) | Minimum inhibitory concentration ([1]; Enterobacter cloacae strain 3, Muller Hinton broth-cation adjusted) | Minimum inhibitory concentration ([1]; Enterobacter cloacae strain 4, Muller Hinton broth-cation adjusted) | Minimum inhibitory concentration ([3]; Klebsiella pneumoniae strain 2, Muller Hinton broth-cation adjusted) | Minimum inhibitory concentration ([3]; Klebsiella pneumoniae strain 3, Muller Hinton broth-cation adjusted) | Minimum inhibitory concentration ([3]; Klebsiella pneumoniae strain 5, Muller Hinton broth-cation adjusted) | Minimum inhibitory concentration ([4]; Pseudomonas aeruginosa strain 5, Muller Hinton broth-cation adjusted) | Minimum inhibitory concentration ([7]; Streptococcus pneumoniae strain 2, Muller Hinton broth-cation adjusted) | Minimum inhibitory concentration ([7]; Streptococcus pneumoniae strain 4, Muller Hinton broth-cation adjusted) | Minimum inhibitory concentration ([7]; Streptococcus pneumoniae strain 5, Muller Hinton broth-cation adjusted) | Minimum inhibitory concentration, C. parapsilosis strain 4 (C. parapsilosis; clinical yeast strain 4)
4: Minimum inhibitory concentration ([1]; Enterobacter cloacae strain 1, Muller Hinton broth-cation adjusted) | Minimum inhibitory concentration ([1]; Enterobacter cloacae strain 5, Muller Hinton broth-cation adjusted) | Minimum inhibitory concentration ([2]; Escherichia coli strain 2) | Minimum inhibitory concentration ([2]; Escherichia coli strain 3) | Minimum inhibitory concentration ([2]; Escherichia coli strain 4) | Minimum inhibitory concentration ([2]; Escherichia coli strain 5) | Minimum inhibitory concentration ([6]; Staphylococcus aureus strain 2, Muller Hinton broth-cation adjusted)
>128: Minimum inhibitory concentration ([5]; Proteus mirabilis strain 1, Muller Hinton broth-cation adjusted) | Minimum inhibitory concentration ([5]; Proteus mirabilis strain 4, Muller Hinton broth-cation adjusted) | Minimum inhibitory concentration ([5]; Proteus mirabilis strain 5, Muller Hinton broth-cation adjusted) | Minimum inhibitory concentration ([8]; Serratia marcescens strain 1, Muller Hinton broth-cation adjusted) | Minimum inhibitory concentration ([8]; Serratia marcescens strain 2, Muller Hinton broth-cation adjusted) | Minimum inhibitory concentration ([8]; Serratia marcescens strain 3, Muller Hinton broth-cation adjusted) | Minimum inhibitory concentration ([8]; Serratia marcescens strain 4, Muller Hinton broth-cation adjusted)
2: Minimum inhibitory concentration ([6]; Staphylococcus aureus strain 1, Muller Hinton broth-cation adjusted) | Minimum inhibitory concentration ([6]; Staphylococcus aureus strain 3, Muller Hinton broth-cation adjusted) | Minimum inhibitory concentration ([6]; Staphylococcus aureus strain 4, Muller Hinton broth-cation adjusted) | Minimum inhibitory concentration ([6]; Staphylococcus aureus strain 5, Muller Hinton broth-cation adjusted) | Minimum inhibitory concentration ([7]; Streptococcus pneumoniae strain 3, Muller Hinton broth-cation adjusted)
64: Minimum inhibitory concentration ([5]; Proteus mirabilis strain 2, Muller Hinton broth-cation adjusted) | Minimum inhibitory concentration ([5]; Proteus mirabilis strain 3, Muller Hinton broth-cation adjusted) | Minimum inhibitory concentration ([8]; Serratia marcescens strain 5, Muller Hinton broth-cation adjusted) | Minimum inhibitory concentration, C. glabrata strain 4 (C. glabrata; clinical yeast strain 4)
